Experimental data from patent US8063098B2, “GlyT1 receptor antagonists” (Hoffmann-La Roche Inc., priority 2008, dated 2011).

Target: T1, mGlyT-1b (Mus musculus, UniProt P28571)
T1 construct: host or cells: Flp-in-CHO
T1 sequence (P28571 1-651 isoform P28571-2): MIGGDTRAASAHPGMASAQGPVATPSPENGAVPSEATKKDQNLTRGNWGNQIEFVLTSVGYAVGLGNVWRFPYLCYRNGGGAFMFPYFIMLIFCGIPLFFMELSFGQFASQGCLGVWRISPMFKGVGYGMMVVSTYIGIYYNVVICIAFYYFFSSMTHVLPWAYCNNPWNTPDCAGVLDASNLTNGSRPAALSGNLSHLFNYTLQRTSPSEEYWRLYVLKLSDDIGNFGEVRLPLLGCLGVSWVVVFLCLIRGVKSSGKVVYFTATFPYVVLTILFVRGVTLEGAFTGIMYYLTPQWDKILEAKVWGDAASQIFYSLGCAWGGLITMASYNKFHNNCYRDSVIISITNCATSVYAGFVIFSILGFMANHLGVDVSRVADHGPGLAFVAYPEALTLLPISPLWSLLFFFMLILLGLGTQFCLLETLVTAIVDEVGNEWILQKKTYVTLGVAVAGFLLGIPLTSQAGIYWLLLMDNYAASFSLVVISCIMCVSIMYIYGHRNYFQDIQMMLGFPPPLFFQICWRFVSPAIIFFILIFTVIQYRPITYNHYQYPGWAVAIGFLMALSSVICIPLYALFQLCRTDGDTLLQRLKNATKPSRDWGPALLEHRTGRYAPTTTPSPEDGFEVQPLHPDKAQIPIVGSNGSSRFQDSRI
Experiment: Glycine uptake inhibition assay (mGlyT-1b), [3H]-glycine uptake in Flp-in-CHO cells
Format: cell-based
Conditions: Flp-in-CHO cells stably transfected with mGlyT1b cDNA, 20 min at 22° C. preincubation
Experimental: Nutrient mixture F-12 (Gibco Life-technologies), fetal bovine serum (FBS) 5%, (Gibco life technologies), Penicillin/Streptomycin 1% (Gibco life technologies), Hygromycin 0.6 mg/ml (Gibco life technologies), Glutamine 1 mM Gibco life technologies) • Uptake buffer (UB): 150 mM NaCl, 10 mM Hepes-Tris, pH 7.4, […], 2.5 mM KCl, 2.5 mM MgSO4, 10 mM (+) D-glucose. • Flp-in™-CHO (Invitrogen Cat n° R758-07) cells stably transfected with mGlyT1b cDNA. Glycine Uptake Inhibition Assay (mGlyT-1b)
On day 1 mammalian cells, (Flp-in™-CHO), transfected with mGlyT-1b cDNA, were plated at the density of 40,000 cells/well in complete F-12 medium, without hygromycin in 96-well culture plates. On day 2, the medium was aspirated and the cells were washed twice with uptake buffer (UB). The cells were then incubated for 20 min at 22° C. with either (i) no potential competitor, (ii) 10 mM non-radioactive glycine, (iii) a concentration of a potential inhibitor. A range of concentrations of the potential inhibitor was used to generate data for calculating the concentration of inhibitor resulting in 50% of the effect (e.g. IC50, the concentration of the competitor inhibiting glycine uptake of 50%). A solution was then immediately added containing [^3H]-glycine 60 nM (11-16 Ci/mmol) and 25 μM non-radioactive glycine. The plates were incubated with gentle shaking and the reaction was stopped by aspiration of the mixture and washing (three times) with ice-cold UB. The cells were lysed with scintillation liquid, shaken 3 hours and the radioactivity in the cells was counted using a scintillation counter.

Row | SMILES | IC50 [µM]
1 | COc1cc(C(F)(F)F)cc(SC)c1C(=O)NC(c1ccc(Cl)cc1)C1(N2CCCC2)CCC1 (centres unmarked) [Example 39, N-[(4-Chloro-phenyl)-(1-pyrrolidin-1-yl-cyclobutyl)-methyl]-2-methoxy-6-methylsulfanyl-4-trifluoromethyl-benzamide] | 0.0211
2 | CSc1cc(C(F)(F)F)ccc1C(=O)NC(c1cccc(F)c1)C1(N2CCCC2)CCC1 (centres unmarked) [Example 55, N-[(3-Fluoro-phenyl)-(1-pyrrolidin-1-yl-cyclobutyl)-methyl]-2-methylsulfanyl-4-trifluoromethyl-benzamide] | 0.0139
3 | CSc1cc(C(F)(F)F)cc(C(F)(F)F)c1C(=O)NC(c1ccccc1)C1(N2CCCC2)CCC1 (centres unmarked) [Example 9, 2-Methylsulfanyl-N-[phenyl-(1-pyrrolidin-1-yl-cyclobutyl)-methyl]-4,6-bis-trifluoromethyl-benzamide] | 0.0295
4 | CCc1cc(C(F)(F)F)cc(C(F)(F)F)c1C(=O)NC(c1ccccc1)C1(N2CCCC2)CCC1 (centres unmarked) [Example 37] | 0.0398
5 | CSc1cc(C(F)(F)F)cc(C(F)(F)F)c1C(=O)NC(c1ccccc1)C1(N2CCCC2)CCC1 (single isomer, unassigned; (-)) [Example 31, (−)-2-Methylsulfanyl-N-[phenyl-(1-pyrrolidin-1-yl-cyclobutyl)-methyl]-4,6-bis-trifluoromethyl-benzamide] | 0.0181
6 | Cc1cc(Cl)ccc1C(=O)NC(c1ccccc1)C1(N2CCCC2)CCC1 (centres unmarked) [Example 63, 4-Chloro-2-methyl-N-[phenyl-(1-pyrrolidin-1-yl-cyclobutyl)-methyl]-benzamide] | 0.0297
7 | CSc1cc(C(F)(F)F)ccc1C(=O)NC(c1cc(F)cc(F)c1)C1(N2CCCC2)CCC1 (centres unmarked) [Example 40, N-[(3,5-Difluoro-phenyl)-(1-pyrrolidin-1-yl-cyclobutyl)-methyl]-2-methylsulfanyl-4-trifluoromethyl-benzamide] | 0.0322
8 | CSc1cc(C(F)(F)F)ccc1C(=O)NC(c1ccccc1)C1(N(C)C)CCC1 (centres unmarked) [Example 50, N-[(1-Dimethylamino-cyclobutyl)-phenyl-methyl]-2-methylsulfanyl-4-trifluoromethyl-benzamide] | 0.01
9 | COc1cc(C(F)(F)F)cc(SC)c1C(=O)NC(c1ccccc1)C1(N2CCN(C3CC3)CC2)CCC1 (centres unmarked) [Example 73, N-{[1-(4-Cyclopropyl-piperazin-1-yl)-cyclobutyl]-phenyl-methyl}-2-methoxy-6-methylsulfanyl-4-trifluoromethyl-benzamide] | 0.0308
10 | COc1cc(C(F)(F)F)cc(SC)c1C(=O)NC(c1ccc(F)cc1)C1(N2CCCC2)CCC1 (centres unmarked) [Example 38, N-[(4-Fluoro-phenyl)-(1-pyrrolidin-1-yl-cyclobutyl)-methyl]-2-methoxy-6-methylsulfanyl-4-trifluoromethyl-benzamide] | 0.0175
11 | CSc1cc(C(F)(F)F)cc(C(F)(F)F)c1C(=O)NC(c1ccccc1)C1(N2CCCC2)CC1 (single isomer, unassigned; (-)) [Example 29, (−)-2-Methylsulfanyl-N-[phenyl-(1-pyrrolidin-1-yl-cyclopropyl)-methyl]-4,6-bis-trifluoromethyl-benzamide] | 0.0509
12 | CSc1cc(C(F)(F)F)ccc1C(=O)NC(c1ccccc1)C1(N2CCCC2)CCC1 (single isomer, unassigned; (+)) [Example 35, (+)-2-Methylsulfanyl-N-[phenyl-(1-pyrrolidin-1-yl-cyclobutyl)-methyl]-4-trifluoromethyl-benzamide] | 0.0098
13 | CSc1cc(C(F)(F)F)ccc1C(=O)NC(c1ccccc1)C1(N2CCCC2)CCC1 (centres unmarked) [Example 16, 2-Methylsulfanyl-N-[phenyl-(1-pyrrolidin-1-yl-cyclobutyl)-methyl]-4-trifluoromethyl-benzamide] | 0.0134
14 | CSc1cccc(C(F)(F)F)c1C(=O)NC(c1ccccc1)C1(N2CCCC2)CCC1 (centres unmarked) [Example 13, 2-Methylsulfanyl-N-[phenyl-(1-pyrrolidin-1-yl-cyclobutyl)-methyl]-6-trifluoromethyl-benzamide] | 0.034
15 | CCc1cc(C(F)(F)F)ccc1C(=O)NC(c1ccccc1)C1(N2CCCC2)CCC1 (centres unmarked) [Example 68, 2-Ethyl-N-[phenyl-(1-pyrrolidin-1-yl-cyclobutyl)-methyl]-4-trifluoromethyl-benzamide] | 0.0091
16 | O=C(NC(c1ccccc1)C1(N2CCCC2)CCC1)c1ccc(C(F)(F)F)cc1-c1ccccc1 (centres unmarked) [Example 67, 5-Trifluoromethyl-biphenyl-2-carboxylic acid [phenyl-(1-pyrrolidin-1-yl-cyclobutyl)-methyl]-amide] | 0.0562
17 | Cc1cc(C(F)(F)F)ccc1C(=O)NC(c1ccccc1)C1(N2CCCC2)CCC1 (centres unmarked) [Example 41, 2-Methyl-N-[phenyl-(1-pyrrolidin-1-yl-cyclobutyl)-methyl]-4-trifluoromethyl-benzamide] | 0.0148
18 | CSc1cc(C(F)(F)F)cc(C(F)(F)F)c1C(=O)NC(c1ccccc1)C1(N2CCCC2)CCC1 (single isomer, unassigned; (+)) [Example 30, (+)-2-Methylsulfanyl-N-[phenyl-(1-pyrrolidin-1-yl-cyclobutyl)-methyl]-4,6-bis-trifluoromethyl-benzamide] | 0.047
19 | CSc1cc(C(F)(F)F)ccc1C(=O)NC(c1ccccc1)C1(N2CCCCC2)CCC1 (centres unmarked) [Example 48, 2-Methylsulfanyl-N-[phenyl-(1-piperidin-1-yl-cyclobutyl)-methyl]-4-trifluoromethyl-benzamide] | 0.0275
20 | COc1cc(C(F)(F)F)cc(C(F)(F)F)c1C(=O)NC(c1ccccc1)C1(N2CCCC2)CCC1 (centres unmarked) [Example 14, 2-Methoxy-N-[phenyl-(1-pyrrolidin-1-yl-cyclobutyl)-methyl]-4,6-bis-trifluoromethyl-benzamide] | 0.0455
21 | COc1cc(C(F)(F)F)ccc1C(=O)NC(c1ccccc1)C1(N2CCCC2)CCC1 (centres unmarked) [Example 17, 2-Methoxy-N-[phenyl-(1-pyrrolidin-1-yl-cyclobutyl)-methyl]-4-trifluoromethyl-benzamide] | 0.0368
22 | COc1cc(C(F)(F)F)cc(SC)c1C(=O)NC(c1ccccc1)C1(N2CCCC2)CC1 (centres unmarked) [Example 10, 2-Methoxy-6-methylsulfanyl-N-[phenyl-(1-pyrrolidin-1-yl-cyclopropyl)-methyl]-4-trifluoromethyl-benzamide] | 0.0253
23 | COc1cc(F)cc(SC)c1C(=O)NC(c1ccccc1)C1(N2CCCC2)CCC1 (centres unmarked) [Example 11, 4-Fluoro-2-Methoxy-6-methylsulfanyl-N-[phenyl-(1-pyrrolidin-1-yl-cyclobutyl)-methyl]-benzamide] | 0.0122
24 | CSc1cc(C(F)(F)F)ccc1C(=O)NC(c1ccc(F)cc1)C1(N2CCCC2)CCC1 (centres unmarked) [Example 24, N-[(4-Fluoro-phenyl)-(1-pyrrolidin-1-yl-cyclobutyl)-methyl]-2-methylsulfanyl-4-trifluoromethyl-benzamide] | 0.02
25 | COc1cc(C(F)(F)F)cc(SC)c1C(=O)NC(c1cc(F)cc(F)c1)C1(N2CCCC2)CCC1 (centres unmarked) [Example 53] | 0.0141
26 | O=C(NC(c1ccccc1)C1(N2CCCC2)CCC1)c1ccc(C(F)(F)F)cc1C(F)(F)F (centres unmarked) [Example 15, N-[Phenyl-(1-pyrrolidin-1-yl-cyclobutyl)-methyl]-2,4-bis-trifluoromethyl-benzamide] | 0.0312
27 | CSc1cc(C(F)(F)F)ccc1C(=O)NC(c1ccc(Cl)cc1)C1(N2CCCC2)CCC1 (centres unmarked) [Example 36, N-[(4-Chloro-phenyl)-(1-pyrrolidin-1-yl-cyclobutyl)-methyl]-methylsulfanyl-4-trifluoromethyl-benzamide] | 0.0597
28 | COc1cc(C(F)(F)F)cc(SC)c1C(=O)NC(c1ccccc1)C1(N2C3CCC2COC3)CCC1 (racemic) [Example 71, (rac)-2-Methoxy-6-methylsulfanyl-N-{[1-(3-oxa-8-aza-bicyclo[3.2.1]oct-8-yl)-cyclobutyl]-phenyl-methyl}-4-trifluoromethyl-benzamide] | 0.0521
29 | COc1cc(C(F)(F)F)cc(SC)c1C(=O)NC(c1ccccc1)C1(N2CCOCC2)CCC1 (centres unmarked) [Example 60, 2-Methoxy-6-methylsulfanyl-N-[(1-morpholin-4-yl-cyclobutyl)-phenyl-methyl]-4-trifluoromethyl-benzamide] | 0.0496
